Source: patent publication US20260001892A1, “COMPOUND FOR REGULATING AND CONTROLLING ACTIVITY OF 15-PGDH AND PREPARATION METHOD THEREFOR” (SCINNOHUB PHARMACEUTICAL CO., LTD., priority 2022, published 2026)
pIC50: −log10 of the molar value.

Biological target: 15-PGDH (Homo sapiens (Human), UniProt P15428)
Experiment: Detection of activity of 15-PGDH enzyme
Assay type: biochemical
Details: inhibitory activity against 15-PGDH enzyme; substrates β-NAD and PGF2α; fluorescence Ex/Em=340/450
Method: • a. A solution of pH 7.5 containing 50 mM Tris-HCl, 0.01% Tween 20 was prepared with ultrapure water as a reaction buffer; • b. A 10 mM mother liquor of the compound to be tested was prepared with DMSO, and then the reaction buffer was used to dilute the mother liquor of the compound to be tested to obtain solution 1 of the compound to be tested at a concentration of 40,000 nM, and then the solution 1 of the compound to be tested was serially diluted into solutions 2-9 (or 2-12) of the compound to be tested at 9 (or 11) concentrations with a gradient difference of three-fold. 5 μL of each concentration of solutions of the compound to be tested was respectively taken and added into a 384-well plate as test wells; • c. 5 μL of the reaction buffer was then added to the blank wells of the 384-well plate as positive control and blank control wells, respectively; • d. The reaction buffer was used to prepare a 15-PGDH protein solution at a concentration of 5 ng/μL, 5 μL of the 15-PGDH protein solution was taken and added to the test wells and positive control wells, and meanwhile 5 μL of the reaction buffer was added to the blank control wells, then the plate was centrifuged at 2000 rpm for 30 seconds; • e. The reaction buffer was used to prepare 5 mM $3-NAD and 2 mM PGF2α, respectively, which were mixed at 1:1 by volume to obtain a substrate mixture, 10 μL of the substrate mixture was taken and added to the test wells, positive control wells and blank control wells to start the reaction; • f. The fluorescence signal value (Ex/Em=340/450) of each well was detected continuously by using a multifunctional microplate reader.
• a) Continuous fluorescence signal values were analyzed by using the “kinetic calculations-slope calculation method” in the PHERAstar Data analysis software to obtain the slope of each test well; • b) The inhibition rate % was calculated by using the following formula: inhibition rate %=[1−(slope of test well-signal value of positive control well)/(signal value of blank control well-average signal value of positive control well)]×100%. • c) Calculation of IC50 and plotting of inhibition rate-dose curves: IC50 values were calculated by fitting compound concentrations and corresponding inhibition rates with a nonlinear regression (dose response-variable slope) via using GraphPad Prism 6.0. The formula was shown below:
Y=Bottom+(Top−Bottom)/(1+10^((Log IC50−X)*HillSlope)), wherein X is a log value of a concentration of the compound, and Y is inhibition rate %.

Chain of 15-PGDH (P15428 whole entry): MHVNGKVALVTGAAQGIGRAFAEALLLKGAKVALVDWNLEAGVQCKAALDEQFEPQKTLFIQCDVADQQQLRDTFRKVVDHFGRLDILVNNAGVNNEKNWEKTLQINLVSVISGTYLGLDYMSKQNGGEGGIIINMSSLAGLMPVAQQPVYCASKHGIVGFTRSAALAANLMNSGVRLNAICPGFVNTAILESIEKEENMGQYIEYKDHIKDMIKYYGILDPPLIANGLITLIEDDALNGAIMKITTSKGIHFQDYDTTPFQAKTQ

SMILES | pIC50
N#Cc1ccc(-c2cnc3c(C4CC4)c(C(=O)N4CCCCC4)sc3n2)cn1 [Example 11] | 7.70 to 8.00
O=C(c1sc2nc(-c3c[nH]c4ccccc34)cnc2c1C1CC1)N1CCCCC1 [Example 16] | 7.70 to 8.00
COc1ccc(-c2cnc3c(C4CC4)c(C(=O)N4CCCCC4)sc3n2)cn1 [Example 23] | 7.70 to 8.00
O=C(c1sc2nc(-c3ccnc(C(F)(F)F)c3)cnc2c1C1CC1)N1CCCCC1 [Example 25] | 7.70 to 8.00
N#Cc1c(C(=O)N2CCCCC2)sc2nc(-c3ccccc3)cnc12 [Example 33, 3-phenyl-6-(piperidine-1-carbonyl)thieno[2,3-b]pyrazine-7-carbonitrile] | 7.70 to 8.00
COc1ncc(-c2cnc3c(C#N)c(C(=O)N4CCCCC4)sc3n2)cn1 [Example 34, 3-(2-methoxypyrimidin-5-yl)-6-(piperidine-1-carbonyl)thieno[2,3-b]pyrazine-7-carbonitrile] | 7.70 to 8.00
N#Cc1c(C(=O)N2CCCCC2)sc2nc(-c3ccc(N4CCOCC4)nc3)cnc12 [Example 43] | 7.70 to 8.00
COc1ccc(-c2cnc3c(C#N)c(C(=O)N4CCCCC4)sc3n2)cn1 [Example 50] | 7.70 to 8.00
Cc1ccc(-c2cnc3c(C#N)c(C(=O)N4CCCCC4)sc3n2)cn1 [Example 51] | 7.70 to 8.00
COc1cc(-c2cnc3c(C#N)c(C(=O)N4CCCCC4)sc3n2)ccn1 [Example 55] | 7.70 to 8.00
CN1Cc2cc(-c3cnc4c(C#N)c(C(=O)N5CCCCC5)sc4n3)ccc2C1=O [Example 62] | 8.00 to 8.52
O=C(c1sc2nc(-c3ccccc3)cnc2c1C(F)(F)F)N1CCCCC1 [Example 63, (3-phenyl-7-(trifluoromethyl)thieno[2,3-b]pyrazin-6-yl)(piperidin-1-yl)methanone] | 8.00 to 8.52
COc1ncc(-c2cnc3c(C(F)(F)F)c(C(=O)N4CCCCC4)sc3n2)cn1 [Example 64, (3-(2-methoxypyrimidin-5-yl)-7-(trifluoromethyl)thieno[2,3-b]pyrazin-6-yl)(piperidin-1-yl)methanone] | 8.00 to 8.52
O=C(c1sc2nc(-c3ccnc(F)c3)cnc2c1C(F)(F)F)N1CCCCC1 [Example 65] | 8.00 to 8.52
N#Cc1ccc(-c2cnc3c(C(F)(F)F)c(C(=O)N4CCCCC4)sc3n2)cn1 [Example 67] | 7.70 to 8.00
Cn1cc(-c2cnc3c(C(F)(F)F)c(C(=O)N4CCCCC4)sc3n2)cn1 [Example 68] | 8.00 to 8.52
Cc1noc(C)c1-c1cnc2c(C(F)(F)F)c(C(=O)N3CCCCC3)sc2n1 [Example 70] | 7.70 to 8.00
Cn1cc(-c2cnc3c(C(F)(F)F)c(C(=O)N4CCCCC4)sc3n2)ccc1=O [Example 71] | 8.00 to 8.52
O=C(c1sc2nc(-c3ccncc3)cnc2c1C(F)(F)F)N1CCCCC1 [Example 72] | 8.00 to 8.52
O=C(c1sc2nc(-c3ccc4c(c3)OCCO4)cnc2c1C(F)(F)F)N1CCCCC1 [Example 76] | 7.70 to 8.00
O=C(c1sc2nc(-c3ccc4nccn4c3)cnc2c1C(F)(F)F)N1CCCCC1 [Example 77] | 8.00 to 8.52
O=C(c1sc2nc(-c3ccc4ncsc4c3)cnc2c1C(F)(F)F)N1CCCCC1 [Example 78] | 7.70 to 8.00
O=C(c1sc2nc(-c3ccc(F)nc3)cnc2c1C(F)(F)F)N1CCCCC1 [Example 79] | 8.00 to 8.52
COc1ccc(-c2cnc3c(C(F)(F)F)c(C(=O)N4CCCCC4)sc3n2)cn1 [Example 80] | 8.00 to 8.52
Nc1cc(-c2cnc3c(C(F)(F)F)c(C(=O)N4CCCCC4)sc3n2)ccn1 [Example 83] | 8.00 to 8.52
COc1cc(-c2cnc3c(C(F)(F)F)c(C(=O)N4CCCCC4)sc3n2)ccn1 [Example 85] | 8.00 to 8.52
O=C(c1sc2nc(-c3cncs3)cnc2c1C(F)(F)F)N1CCCCC1 [Example 86] | 8.00 to 8.52
CN(C)c1ncc(-c2cnc3c(C(F)(F)F)c(C(=O)N4CCCCC4)sc3n2)cn1 [Example 88] | 7.70 to 8.00
O=C(c1sc2nc(-c3cnc(N4CCOCC4)nc3)cnc2c1C(F)(F)F)N1CCCCC1 [Example 89] | 7.70 to 8.00

Other lines, results leading:

pIC50 | SMILES
> 8.52 | O=C(c1sc2nc(-c3ccccc3)cnc2c1C1CC1)N1CCCCC1 [Example 1, (7-cyclopropyl-3-phenylthieno[2,3-b]pyrazin-6-yl)(piperidin-1-yl)methanone]
8.00 to 8.52 | Cc1cc(-c2cnc3c(C4CC4)c(C(=O)N4CCCCC4)sc3n2)ccn1 [Example 2, (7-cyclopropyl-3-(2-methylpyridin-4-yl)thieno[2,3-b]pyrazin-6-yl)(piperidin-1-yl)methanone]
> 8.52 | O=C(c1sc2nc(-c3cnc(N4CCOCC4)nc3)cnc2c1C1CC1)N1CCCCC1 [Example 3]
8.00 to 8.52 | O=C(c1sc2nc(-c3ccnc(F)c3)cnc2c1C1CC1)N1CCCCC1 [Example 4]
> 8.52 | COc1ncc(-c2cnc3c(C4CC4)c(C(=O)N4CCCCC4)sc3n2)cn1 [Example 5]
8.00 to 8.52 | O=C(c1sc2nc(-c3cccnc3)cnc2c1C1CC1)N1CCCCC1 [Example 7]
8.00 to 8.52 | Cc1noc(C)c1-c1cnc2c(C3CC3)c(C(=O)N3CCCCC3)sc2n1 [Example 8]
8.00 to 8.52 | O=C(c1sc2nc(-c3ccncc3)cnc2c1C1CC1)N1CCCCC1 [Example 9]
8.00 to 8.52 | Cn1cc(-c2cnc3c(C4CC4)c(C(=O)N4CCCCC4)sc3n2)cn1 [Example 10]
> 8.52 | O=C(c1sc2nc(-c3ccc4nccn4c3)cnc2c1C1CC1)N1CCCCC1 [Example 12]
8.00 to 8.52 | O=C(c1sc2nc(-c3ccc4ncsc4c3)cnc2c1C1CC1)N1CCCCC1 [Example 13]
8.00 to 8.52 | O=C(c1sc2nc(-c3ccc4c(c3)OCO4)cnc2c1C1CC1)N1CCCCC1 [Example 14]
8.00 to 8.52 | O=C(c1sc2nc(-c3cccs3)cnc2c1C1CC1)N1CCCCC1 [Example 17]
> 8.52 | Cn1cc(-c2cnc3c(C4CC4)c(C(=O)N4CCCCC4)sc3n2)ccc1=O [Example 18]
8.00 to 8.52 | O=C(c1sc2nc(-c3ccc(N4CCOCC4)nc3)cnc2c1C1CC1)N1CCCCC1 [Example 19]
8.00 to 8.52 | O=C(c1sc2nc(-c3ccc4nccnc4c3)cnc2c1C1CC1)N1CCCCC1 [Example 20]
8.00 to 8.52 | O=C(c1sc2nc(-c3ccc4c(c3)OCCO4)cnc2c1C1CC1)N1CCCCC1 [Example 21]
> 8.52 | O=C(c1sc2nc(-c3cncnc3)cnc2c1C1CC1)N1CCCCC1 [Example 22]
> 8.52 | Cc1ccc(-c2cnc3c(C4CC4)c(C(=O)N4CCCCC4)sc3n2)cn1 [Example 24]

pIC50 | SMILES
> 8.52 | COc1cc(-c2cnc3c(C4CC4)c(C(=O)N4CCCCC4)sc3n2)ccn1 [Example 26]
8.00 to 8.52 | O=C(c1sc2nc(-c3ccc(F)nc3)cnc2c1C1CC1)N1CCCCC1 [Example 27]
8.00 to 8.52 | Nc1cc(-c2cnc3c(C4CC4)c(C(=O)N4CCCCC4)sc3n2)ccn1 [Example 28]
8.00 to 8.52 | O=C(c1sc2nc(-c3cncs3)cnc2c1C1CC1)N1CCCCC1 [Example 29]
8.00 to 8.52 | CN(C)c1ncc(-c2cnc3c(C4CC4)c(C(=O)N4CCCCC4)sc3n2)cn1 [Example 30]
> 8.52 | Nc1ncc(-c2cnc3c(C4CC4)c(C(=O)N4CCCCC4)sc3n2)cn1 [Example 31]
> 8.52 | CN1Cc2cc(-c3cnc4c(C5CC5)c(C(=O)N5CCCCC5)sc4n3)ccc2C1=O [Example 32]
8.00 to 8.52 | N#Cc1c(C(=O)N2CCCCC2)sc2nc(-c3ccc4nccnc4c3)cnc12 [Example 45]
8.00 to 8.52 | N#Cc1c(C(=O)N2CCCCC2)sc2nc(-c3ccc4nccn4c3)cnc12 [Example 47]
8.00 to 8.52 | N#Cc1c(C(=O)N2CCCCC2)sc2nc(-c3ccc4ncsc4c3)cnc12 [Example 48]
8.00 to 8.52 | N#Cc1c(C(=O)N2CCCCC2)sc2nc(-c3cncs3)cnc12 [Example 56]
8.00 to 8.52 | Cc1cc(-c2cnc3c(C#N)c(C(=O)N4CCCCC4)sc3n2)ccn1 [Example 57]
8.00 to 8.52 | CN(C)c1ncc(-c2cnc3c(C#N)c(C(=O)N4CCCCC4)sc3n2)cn1 [Example 58]
8.00 to 8.52 | N#Cc1c(C(=O)N2CCCCC2)sc2nc(-c3cnc(N4CCOCC4)nc3)cnc12 [Example 59]
8.00 to 8.52 | N#Cc1c(C(=O)N2CCCCC2)sc2nc(-c3cnc(N)nc3)cnc12 [Example 60]
8.00 to 8.52 | N#Cc1c(C(=O)N2CCCCC2)sc2nc(-c3cncnc3)cnc12 [Example 61]
> 8.52 | O=C(c1sc2nc(-c3cccs3)cnc2c1C(F)(F)F)N1CCCCC1 [Example 69]
> 8.52 | O=C(c1sc2nc(-c3cccnc3)cnc2c1C(F)(F)F)N1CCCCC1 [Example 74]
> 8.52 | Cc1cc(-c2cnc3c(C(F)(F)F)c(C(=O)N4CCCCC4)sc3n2)ccn1 [Example 87]
